Common to all, as to type: biochemical
In one test the target is T1, JAK3 (Homo sapiens, UniProt P52333).
T1 construct: All four purified enzymes contain only the catalytic domain; His (N); purchased Carna Biosciences, Inc; host or cells: baculovirus expression system
As to the kind of experiment: JAK3 kinase assay (HTRF, inhibition of phosphorylation of a synthetic peptide). Particulars: catalytic domain, His-tag; 2 μM ATP (Km); read-out: JAK3 kinase inhibitory activity (EC50). The procedure: (§1) JAK1, JAK2, JAK3 and TYK2 Kinase Assays:
(§2) Human baculovirus-expressed JAK1, 2, 3 and TYK2 were purchased from Carna Biosciences, Inc. All four purified enzymes contain only the catalytic domain. JAK1 (aa 850-1154) and TYK2 (aa 871-1187) are expressed with an N-terminally fused GST-tag, and JAK2 and JAK3 with an N-terminally fused His-tag. Inhibition of phosphorylation of a synthetic peptide was measured in an HTRF-based assay using the TK substrate-Biotin from the CisbioHTRFKinEASE TK kit. First, 2 μl of TK solution (TK substrate-biotin in kinase buffer [1× enzymatic buffer from HTRFKinEASE TK kit, 1 mM DTT]) is added to a plate containing 1 μl prediluted compound (final assay concentration DMSO: 0.75%). Then, 5 μl kinase-ATP mix (prepared in kinase buffer) is added to the wells and the plates are incubated at RT for 20-30 min. For all four kinases a concentration of ATP that corresponded to the Km for ATP was used. The final concentrations of buffers, substrate, kinase and ATP were: JAK1: 50 mMHepes buffer pH 7.0, 0.01% BSA, 10 mM MgCl2, 1 mM DTT, 7 μM ATP, 50 nMSEB, 1 μM TK Substrate-Biotin and 5 ng JAK1; JAK2: 50 mM Hepes buffer pH 7.0, 0.01% BSA, 5 mM MgCl2, 1 mM DTT, 4 μM ATP, 1 μM TK Substrate-Biotin and 0.1 ng JAK2; JAK3: 50 mMHepes buffer pH 7.0, 0.01% BSA, 5 mM MgCl2, 1 mM DTT, 2 μM ATP, 1 μM TK Substrate-Biotin and 0.3 ng JAK3; TYK2: 50 mMHepes buffer pH 7.0, 0.01% BSA, 5 mM MgCl2, 1 mM DTT, 13 μM ATP, 50 nMSEB, 1 μM TK Substrate-Biotin and 0.8 ng TYK2. Thereafter, the kinase reaction is stopped by adding 4 μl detection mix (final concentrations: 50 mM Hepes buffer pH 7.0, 0.01% BSA, 0.8 M KF, 20 mM EDTA, 42 nM Streptavidin-XL665 and 1:400 STKAbCryptate) and the plates are incubated overnight in the dark. The HTRF signal is read using an Envision plate reader.

The target in a further test is T2, JAK1 (Homo sapiens, UniProt P23458).
T2 construct: JAK1 (aa 850-1154) and TYK2 (aa 871-1187) are expressed with an N-terminally fused GST-tag; GST (N); purchased Carna Biosciences, Inc; host or cells: baculovirus expression system
T2 sequence (P23458 850-1154): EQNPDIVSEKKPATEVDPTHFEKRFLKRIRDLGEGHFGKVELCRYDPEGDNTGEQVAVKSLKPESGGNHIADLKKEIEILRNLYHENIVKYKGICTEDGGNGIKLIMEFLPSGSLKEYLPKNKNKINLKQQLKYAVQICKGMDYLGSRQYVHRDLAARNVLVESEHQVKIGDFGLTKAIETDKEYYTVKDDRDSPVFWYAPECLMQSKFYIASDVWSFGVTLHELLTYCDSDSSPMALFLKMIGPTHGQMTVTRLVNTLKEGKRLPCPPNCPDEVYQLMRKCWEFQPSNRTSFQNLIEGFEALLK
As to the kind of experiment: JAK1 kinase assay (HTRF, inhibition of phosphorylation of a synthetic peptide). The note with it: catalytic domain aa 850-1154, GST-tag; 7 μM ATP (Km); read-out: JAK1 kinase inhibitory activity (EC50). On the procedure:
as §1, §2
A general note: In TR-FRET formats the signal depends on donor and acceptor labels being close together.

In another test the target is T3, JAK2 (Homo sapiens, UniProt O60674).
T3 construct: All four purified enzymes contain only the catalytic domain; His (N); purchased Carna Biosciences, Inc; host or cells: baculovirus expression system
T3 sequence (O60674 849-1124 limits assumed): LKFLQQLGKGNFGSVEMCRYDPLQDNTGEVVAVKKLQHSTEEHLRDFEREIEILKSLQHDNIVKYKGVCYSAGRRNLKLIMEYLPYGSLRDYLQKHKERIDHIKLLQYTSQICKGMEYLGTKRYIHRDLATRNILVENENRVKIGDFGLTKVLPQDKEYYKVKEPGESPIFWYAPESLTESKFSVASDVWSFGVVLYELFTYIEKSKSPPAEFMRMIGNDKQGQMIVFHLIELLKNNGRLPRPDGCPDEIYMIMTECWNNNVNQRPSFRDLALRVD
As to the kind of experiment: JAK2 kinase assay (HTRF, inhibition of phosphorylation of a synthetic peptide). The note with it: catalytic domain, His-tag; 4 μM ATP (Km); read-out: JAK2 kinase inhibitory activity (EC50). The procedure: as §1, §2

In patent US9586961B2, “Homopiperazine derivatives as protein tyrosine kinase inhibitors and pharmaceutical use thereof” (LEO PHARMA A/S, priority 2010, dated 2017) one finds EC50 data, which are given here for eleven compounds.

Usually EC50 stands for the concentration giving half of the maximal effect.

T1 sequence (P52333 822-1111 limits assumed): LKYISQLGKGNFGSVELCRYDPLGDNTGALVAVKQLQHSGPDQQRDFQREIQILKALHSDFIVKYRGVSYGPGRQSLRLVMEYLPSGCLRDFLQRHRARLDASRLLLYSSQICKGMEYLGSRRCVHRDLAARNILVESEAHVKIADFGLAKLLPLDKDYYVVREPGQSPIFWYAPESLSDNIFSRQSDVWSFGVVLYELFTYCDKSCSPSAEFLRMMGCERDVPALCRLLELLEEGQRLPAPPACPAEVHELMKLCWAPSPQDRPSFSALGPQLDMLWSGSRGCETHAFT

Turning to `O=C(CN1C(=O)CSC1=O)N1CCN(c2ncnc3[nH]ccc23)CC2(CC2)C1` [Example 79, 3-[2-oxo-2-[5-(7H-pyrrolo[2,3-d]pyrimidin-4-yl)-5,8-diazaspiro[2.6]nonan-8-yl]ethyl]thiazolidine-2,4-dione], the concentration for a half-maximal effect (EC50) at JAK3, on JAK1 and on JAK2 was below 100 nM in each case.

For `CN1CC(=O)N(CC(=O)N2CCN(c3ncnc4[nH]ccc34)CC3(CC3)C2)C1=O` [Example 80, 1-methyl-3-[2-oxo-2-[5-(7H-pyrrolo[2,3-d]pyrimidin-4-yl)-5,8-diazaspiro[2.6]nonan-8-yl]ethyl]imidazolidine-2,4-dione], the EC50 at JAK3 is 100 to 1000 nM; at JAK1, 100 to 1000 nM; at JAK2, below 100 nM.

As for `O=C(CN1CCOC1=O)N1CCN(c2ncnc3[nH]ccc23)CC2(CC2)C1` [Example 81, 3-[2-oxo-2-[5-(7H-pyrrolo[2,3-d]pyrimidin-4-yl)-5,8-diazaspiro[2.6]nonan-8-yl]ethyl]oxazolidin-2-one], the EC50 at JAK3, at JAK1 and at JAK2 was 100 to 1000 nM each time.

Regarding `CN1CCN(CC(=O)N2CCN(c3ncnc4[nH]ccc34)CC3(CC3)C2)C1=O` [Example 82, 1-methyl-3-[2-oxo-2-[5-(7H-pyrrolo[2,3-d]pyrimidin-4-yl)-5,8-diazaspiro[2.6]nonan-8-yl]ethyl]imidazolidin-2-one], the 50% effective concentration (EC50) at JAK3, at JAK1 and at JAK2 was 100 to 1000 nM throughout.

As for `CN1CCN(CC(=O)N2CCCN(c3ncnc4[nH]ccc34)CC23CC3)C1=O` [Example 83, 1-methyl-3-[2-oxo-2-[5-(7H-pyrrolo[2,3-d]pyrimidin-4-yl)-5,9-diazaspiro[2.6]nonan-9-yl]ethyl]imidazolidin-2-one], the EC50 on JAK3, at JAK1 and at JAK2 was 100 to 1000 nM each time.

With `O=C1CCC(=O)N1CC(=O)N1CCCN(c2ncnc3[nH]ccc23)CC12CC2` [Example 84, 1-[2-oxo-2-[5-(7H-pyrrolo[2,3-d]pyrimidin-4-yl)-5,9-diazaspiro[2.6]nonan-9-yl]ethyl]pyrrolidine-2,5-dione], the half-maximal effective concentration (EC50) at JAK3, on JAK1 and on JAK2 was 100 to 1000 nM throughout.

On to `O=C1CSC(=O)N1CC(=O)N1CCCN(c2ncnc3[nH]ccc23)CC12CC2` [Example 85, 3-[2-oxo-2-[5-(7H-pyrrolo[2,3-d]pyrimidin-4-yl)-5,9-diazaspiro[2.6]nonan-9-yl]ethyl]thiazolidine-2,4-dione], for which the EC50 at JAK3, on JAK1 and at JAK2 was 100 to 1000 nM throughout.

As to `O=C1OCCN1CC(=O)N1CCCN(c2ncnc3[nH]ccc23)CC12CC2` [Example 86, 3-[2-oxo-2-[5-(7H-pyrrolo[2,3-d]pyrimidin-4-yl)-5,9-diazaspiro[2.6]nonan-9-yl]ethyl]oxazolidin-2-one], the 50% effective concentration (EC50) at JAK3 was above 1000 nM; at JAK1, above 1000 nM; at JAK2 it was 100 to 1000 nM.

On to `O=C(Cc1cscn1)N1CCN(c2ncnc3[nH]ccc23)CC2(CC2)C1` [Example 88, 1-[5-(7H-pyrrolo[2,3-d]pyrimidin-4-yl)-5,8-diazaspiro[2.6]nonan-8-yl]-2-thiazol-4-yl-ethanone], for which the EC50 on JAK3, at JAK1 and on JAK2 was 100 to 1000 nM each time.

As for `O=C(Cc1cnc[nH]1)N1CCN(c2ncnc3[nH]ccc23)CC2(CC2)C1` [Example 89, 2-(1H-imidazol-5-yl)-1-[5-(7H-pyrrolo[2,3-d]pyrimidin-4-yl)-5,8-diazaspiro[2.6]nonan-8-yl]ethanone], the EC50 at JAK3, on JAK1 and on JAK2 was 100 to 1000 nM each time.

Consider `N#Cc1ccc(/C=C/C(=O)N2CCN(c3ncnc4[nH]ccc34)CC3(CC3)C2)cc1` [Example 117, 4-[(E)-3-oxo-3-[5-(7H-pyrrolo[2,3-d]pyrimidin-4-yl)-5,8-diazaspiro[2.6]nonan-8-yl]prop-1-enyl]benzonitrile], for which the EC50 at JAK1 and on JAK2 was 100 to 1000 nM in each case.
